For eleven compounds, TGI and GI50 results are on record in PubChem BioAssay (NCI).

Molecules are shown by their SMILES.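 The compound was tested at five concentrations on cells cultured in 96-well plates, with a 48-hour exposure period. GI50 is the concentration that inhibits growth by half. TGI marks complete inhibition of growth.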

Holding throughout (test): NCI tumour cell line growth inhibition, 48 h
Test [1] deals with TK-10 renal.
The test system of test [2] is RXF 393 renal.
Test [3] deals with PC-3 prostate.
Test [4] concerns CAKI-1 renal.
Test [5] concerns MCF7 breast.
Test [6] relates to SF-268 CNS.
The test system of test [7] is NCI-H460 lung.
In test [8] the test system is MALME-3M melanoma.
The subject of test [9] is DMS 273 small cell lung.

Consider `CCCn1cnc2c(SCC(=O)O)nc(N)nc21`, for which the TGI in test [1], in [2], in test [3], in [4], in test [5] and in test [6] was greater than 100 µM throughout. The TGI in [7] and in test [8] was greater than 100 µM throughout.

Turning to `O=C(Nc1ccc(-n2ccc3c(NC(=O)c4ccccc4)ncnc32)cc1)c1cccc(C(F)(F)F)c1`, the GI50 in [1] was 8.57 µM; in [2], 3.39 µM; in test [3], 3.3 µM; in [4], 1.13 µM; in test [5] it was 1.39 µM; in test [6] it was 1.16 µM. The GI50 in test [7] was 0.0837 µM; in [8] it was 9.75 µM. The TGI in test [1] was 27.2 µM; in test [2] it was 19.9 µM; in test [3] it was 34 µM; in [4], greater than 44.6 µM; in [5] it was 18.5 µM; in test [6] it was 24.5 µM. The figures for the TGI in [7] and in [8] were 12.3 µM and 26.1 µM, respectively.

Turning to `NC(=O)[C@@H](CC1CC1)[C@@H](CCC(F)(F)F)C(=O)N[C@H]1N=C(c2ccccc2)c2cccc(F)c2NC1=O`, the GI50 is greater than 100 µM in test [1]; 68 µM in test [2]; 69 µM in test [3]; greater than 100 µM in test [4]; 28.3 µM in test [5]; greater than 100 µM in test [6]. Also, the GI50 in test [7] is greater than 100 µM; in [8] it was 15.4 µM. Besides, the TGI in test [1], in test [2], in [3], in test [4], in [5] and in [6] was greater than 100 µM in each case. The TGI in test [7] was greater than 100 µM; in [8], 32.5 µM.

`CNNC(=N\S(=O)(=O)c1cc(C)c(Cl)cc1SCc1ccccc1)/N=C/c1ccc([N+](=O)[O-])s1`: the GI50 is greater than 74.9 µM in test [1]; greater than 100 µM in test [2]; greater than 100 µM in test [3]; greater than 100 µM in test [4]; 97.9 µM in test [5]; greater than 100 µM in [6]. For the same compound, the figures for the GI50 in test [7] and in test [8] were greater than 64.1 µM and 1.18 µM, respectively. The TGI in test [1], in test [2], in test [3], in test [4], in test [5] and in test [6] was greater than 100 µM in each case. For the same compound, the figures for the TGI in [7] and in [8] were greater than 100 µM and greater than 64.2 µM, respectively.

Take `CC(C)c1nc(N(C)S(C)(=O)=O)nc(-c2ccc(F)cc2)c1/C=C/[C@@H](O)C[C@@H](O)CC(=O)O`: the GI50 is greater than 100 µM in [1]; 41.5 µM in test [2]; 41.7 µM in test [3]; 67.7 µM in [4]; greater than 100 µM in test [5]; 28.3 µM in [6]. Further, the GI50 in test [7] and in [8] was greater than 100 µM in each case. Also, the TGI in test [1], in test [2], in test [3], in [4], in test [5] and in test [6] was greater than 100 µM in each case. The TGI in test [7] and in test [8] was greater than 100 µM throughout.

Consider `Cc1ccc(Oc2ccccc2N)cc1`, for which the TGI in [1], in test [2], in test [9], in test [6], in test [7] and in [8] was greater than 100 µM throughout.

On to `Cc1cc(Cl)ccc1OCC(=O)Nc1nc(N)nc(N)n1`, for which the TGI in test [1], in [2], in [3], in test [4], in test [5] and in [6] was greater than 100 µM in each case. For the same compound, the TGI in test [7] and in test [8] was greater than 100 µM each time.

Regarding `Cc1ncc(C(=O)Nc2ccc(CN3CCN(C)CC3)c(C(F)(F)F)c2)cc1C#Cc1ccc(N)nc1`, the GI50 in test [1] was 0.654 µM; in test [2], 0.197 µM; in test [3], 0.72 µM; in test [4], 0.104 µM; in test [5] it was 0.903 µM; in [6], 0.258 µM. For the same compound, the GI50 in [7] was 0.19 µM; in test [8], 0.0868 µM. Also, the TGI was determined as 4.39 µM in test [1]; 0.892 µM in test [2]; 5.89 µM in [3]; 0.533 µM in test [4]; 4.89 µM in [5]; 1.43 µM in test [6]. Further, the values for the TGI in test [7] and in test [8] were 1.84 µM and 0.379 µM, respectively.

As to `CCOc1ccc2c(c1)C(=O)c1c-2n(CCCBr)c(=O)c2cc([N+](=O)[O-])ccc12`, the GI50 is greater than 100 µM in test [1]; 37.9 µM in test [2]; greater than 100 µM in test [3]; 8.15 µM in test [4]; 0.344 µM in test [5]; 5.1 µM in test [6]. Moreover, the GI50 in [7] is 1.97 µM; in [8], 40.7 µM. In addition, the TGI was greater than 100 µM in test [1]; greater than 100 µM in test [2]; greater than 100 µM in test [3]; greater than 100 µM in test [4]; 63.8 µM in test [5]; greater than 100 µM in [6]. For the same compound, the TGI in [7] was 91.6 µM; in test [8], greater than 100 µM.

As to `c1cc(-c2nnc(SSc3ncnc4nc[nH]c34)o2)ccn1`, the GI50 is 0.487 µM in [1]; 6.59 µM in [2]; 3.48 µM in test [3]; 0.472 µM in test [4]; 0.419 µM in test [5]; 2.18 µM in test [6]. The GI50 in [7] is 5.15 µM; in test [8] it was 2.08 µM. In addition, the TGI in test [1] was greater than 100 µM; in [2] it was greater than 100 µM; in [3], greater than 100 µM; in test [4] it was 5.17 µM; in test [5], greater than 100 µM; in test [6], greater than 100 µM. Also, the TGI in [7] and in test [8] was greater than 100 µM in each case.

In the case of `[O-][N+]1(CC[N+]2([O-])CCCCC2)CCCCC1`, the TGI in [1], in test [2], in test [3], in test [4], in test [5] and in test [6] was greater than 100 µM in each case. For the same compound, the TGI in test [7] and in [8] was greater than 100 µM in each case.
